Test systems include COLO 205 colon; M14 melanoma; NCI-H522 lung; UACC-62 melanoma; HOP-92 NSCLC; A498 renal; IGROV1 ovarian; MCF7 breast; HS 578T breast; CAKI-1 renal; OVCAR-8 ovarian.
Common to all, as to assay: NCI-60 cell line screen, 48 h

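Compound exposure: 48 hours, 5 concentrations, 96-well plates. The concentration for full growth arrest is given as TGI.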

For 13 molecules, TGI results are on record in PubChem BioAssay (NCI).

Take `C[C@@]12C[C@@H](c3ccccc3O1)N1CCCCSC1=N2`: the TGI in the experiment on COLO 205 colon, with M14 melanoma, with NCI-H522 lung, with UACC-62 melanoma, in the experiment on HOP-92 NSCLC and in the experiment on A498 renal was over 100 µM each time. Also, the TGI in the experiment with IGROV1 ovarian, in the experiment with MCF7 breast, with HS 578T breast, with CAKI-1 renal and in the experiment on OVCAR-8 ovarian was over 100 µM in each case.

Take `COc1ccc(N2C(=O)C3c4[nH]c5ccccc5c4C4CCC(C(C)(C)C)CC4C3C2=O)c(C)c1` (centres undefined): the TGI with COLO 205 colon, with M14 melanoma, with NCI-H522 lung, with UACC-62 melanoma, with IGROV1 ovarian and in the experiment on MCF7 breast was over 100 µM each time. Besides, the TGI in the experiment with HS 578T breast, in the experiment on CAKI-1 renal and with OVCAR-8 ovarian was over 100 µM each time.

As for `O=C(O)c1cccc2c1/C(=N/Nc1ccccc1)CC2`, the TGI in the experiment with M14 melanoma, in the experiment with NCI-H522 lung, in the experiment on HOP-92 NSCLC, in the experiment with A498 renal, in the experiment on IGROV1 ovarian and in the experiment on MCF7 breast was over 100 µM throughout. The TGI with HS 578T breast, in the experiment on CAKI-1 renal and with OVCAR-8 ovarian was over 100 µM throughout.

Regarding `CC1(C)N=C(/C(Cl)=[N+](/[O-])C(=O)c2ccc(F)cc2)C(C)(C)N1O`, the TGI stood at 38.2 µM with COLO 205 colon; 30.3 µM with M14 melanoma; 33 µM in the experiment on UACC-62 melanoma; 40 µM in the experiment on HOP-92 NSCLC; 37 µM in the experiment on IGROV1 ovarian; 44 µM in the experiment with MCF7 breast. Besides, the TGI in the experiment on HS 578T breast is 57.1 µM; in the experiment on CAKI-1 renal, 34.5 µM; with OVCAR-8 ovarian, 33.9 µM.

In the case of `Cc1nc(C(N)=S)sc1/C(CC(=O)C(=O)Nc1cccc2ccc(O)cc12)=N\NC(=O)c1ccncc1`, the TGI with COLO 205 colon, in the experiment on M14 melanoma, with NCI-H522 lung, in the experiment on UACC-62 melanoma, in the experiment on HOP-92 NSCLC and in the experiment with IGROV1 ovarian was over 100 µM throughout. Further, the TGI in the experiment on MCF7 breast, with HS 578T breast, in the experiment with CAKI-1 renal and in the experiment on OVCAR-8 ovarian was over 100 µM each time.

Consider `C=C(C1=CC(=O)C(C)(C)O1)[C@@H]1CC=C([C@@H]2CC[C@H]3[C@@]2(C)CC[C@H]2C(C)(C)C(=O)[C@H](O)C[C@]32C)[C@H](O)O1`, for which the TGI worked out at 3.51 µM in the experiment on COLO 205 colon; 3.08 µM with M14 melanoma; 14.9 µM in the experiment on UACC-62 melanoma; 4.11 µM with HOP-92 NSCLC; 9.89 µM in the experiment with A498 renal; 5.48 µM with IGROV1 ovarian. For the same molecule, the TGI in the experiment on MCF7 breast was determined as 1.61 µM; with HS 578T breast it was 13.1 µM; in the experiment with CAKI-1 renal, 14.2 µM; with OVCAR-8 ovarian, 4.75 µM.

`C(/c1ccco1)=c1/nc(-c2ccccc2)n2c1nc1ccccc12`: the TGI in the experiment with COLO 205 colon, in the experiment with M14 melanoma, in the experiment with UACC-62 melanoma, with HOP-92 NSCLC, in the experiment on A498 renal and in the experiment on IGROV1 ovarian was over 100 µM in each case. Besides, the TGI in the experiment on MCF7 breast was over 100 µM; in the experiment on HS 578T breast it was over 100 µM; with CAKI-1 renal it was 72.2 µM; in the experiment with OVCAR-8 ovarian, over 100 µM.

Turning to `CCNC(=S)N/N=C/c1cc([N+](=O)[O-])ccc1O`, the TGI with COLO 205 colon is over 100 µM; in the experiment with M14 melanoma it was over 100 µM; in the experiment with NCI-H522 lung, 59.3 µM; in the experiment on UACC-62 melanoma it was 93.9 µM; in the experiment with A498 renal, 69.1 µM; in the experiment with IGROV1 ovarian it was over 100 µM. The TGI is 4.4 µM in the experiment with MCF7 breast, over 100 µM in the experiment with HS 578T breast and over 100 µM in the experiment on OVCAR-8 ovarian.

As for `Cc1cc(O)c2c(=O)c3ccccc3[nH]c2c1`, the TGI with COLO 205 colon is 42 µM; in the experiment with M14 melanoma it was 52.6 µM; with NCI-H522 lung it was 16 µM; in the experiment on HOP-92 NSCLC it was over 100 µM; in the experiment on A498 renal, 82.6 µM; in the experiment on IGROV1 ovarian, 94.2 µM. In addition, the TGI in the experiment on MCF7 breast is over 100 µM; with HS 578T breast it was 84.6 µM; in the experiment on CAKI-1 renal it was 90.6 µM; in the experiment on OVCAR-8 ovarian it was 70.2 µM.

On to `CC(=O)O[C@H]1C(=O)[C@]2(C)[C@@H](OC(=O)OCCC(O)CO)C[C@H]3OC[C@@]3(OC(C)=O)[C@H]2[C@H](OC(=O)c2ccccc2)[C@]2(O)C[C@H](OC(=O)[C@H](O)[C@@H](NC(=O)c3ccccc3)c3ccccc3)C(C)=C1C2(C)C` (some centres undefined), for which the TGI in the experiment on M14 melanoma was 7.16 µM; in the experiment on NCI-H522 lung, under 0.01 µM; with UACC-62 melanoma, 24.8 µM; with HOP-92 NSCLC, 25.2 µM; in the experiment on A498 renal, 21.6 µM; with IGROV1 ovarian, 19.8 µM. Besides, the results for the TGI with MCF7 breast, in the experiment with HS 578T breast and in the experiment with CAKI-1 renal were over 35 µM, 0.479 µM and over 42.3 µM, respectively.

Turning to `Clc1cc(OC2C3CC4CC(C3)CC2C4)nc(Cl)n1` (centres undefined), the TGI in the experiment on COLO 205 colon was 34.2 µM; with M14 melanoma, 32.5 µM; with NCI-H522 lung, 27.1 µM; in the experiment on UACC-62 melanoma it was 24.7 µM; in the experiment with HOP-92 NSCLC, 3.41 µM; with A498 renal it was 39.6 µM. Further, the TGI in the experiment with IGROV1 ovarian was 23.3 µM; in the experiment with MCF7 breast it was 35.2 µM; in the experiment with HS 578T breast it was 42.9 µM; with OVCAR-8 ovarian it was 61.6 µM.

As to `Cc1ccc(SCC(CSCCO)OCn2cnc3c2NC(N)=NC32OCCO2)cc1` (centres undefined), the TGI in the experiment on M14 melanoma, with NCI-H522 lung, in the experiment on HOP-92 NSCLC, with A498 renal, with IGROV1 ovarian and in the experiment with MCF7 breast was over 100 µM throughout. The TGI with HS 578T breast, in the experiment on CAKI-1 renal and with OVCAR-8 ovarian was over 100 µM in each case.

`Cc1cccc(/C=N/NC(=S)Nc2ccccc2)n1`: the TGI is 8.05 µM in the experiment on M14 melanoma; 12.5 µM with UACC-62 melanoma; over 92.9 µM in the experiment with HOP-92 NSCLC; 67 µM in the experiment on A498 renal; over 25 µM with IGROV1 ovarian; over 25.7 µM in the experiment with MCF7 breast. For the same molecule, the TGI in the experiment on HS 578T breast is over 100 µM; with CAKI-1 renal, over 42.3 µM; with OVCAR-8 ovarian, 8.92 µM.
